Results taken from patent US20210253575A1, “PYRROLIDINE AMINE COMPOUNDS FOR THE TREATMENT OF AUTOIMMUNE DISEASE” (Hoffmann-La Roche Inc., priority 2018, published 2021).

target: T1, human TLR8 (Homo sapiens, UniProt Q9NR97); assay: HEK293-Blue-hTLR-8 cells assay (SEAP reporter, R848 stimulation); type: cell-based; settings: HEK293-Blue-hTLR8 cells, R848 ligand, 20 hrs incubation
T1 sequence (Q9NR97 27-1041): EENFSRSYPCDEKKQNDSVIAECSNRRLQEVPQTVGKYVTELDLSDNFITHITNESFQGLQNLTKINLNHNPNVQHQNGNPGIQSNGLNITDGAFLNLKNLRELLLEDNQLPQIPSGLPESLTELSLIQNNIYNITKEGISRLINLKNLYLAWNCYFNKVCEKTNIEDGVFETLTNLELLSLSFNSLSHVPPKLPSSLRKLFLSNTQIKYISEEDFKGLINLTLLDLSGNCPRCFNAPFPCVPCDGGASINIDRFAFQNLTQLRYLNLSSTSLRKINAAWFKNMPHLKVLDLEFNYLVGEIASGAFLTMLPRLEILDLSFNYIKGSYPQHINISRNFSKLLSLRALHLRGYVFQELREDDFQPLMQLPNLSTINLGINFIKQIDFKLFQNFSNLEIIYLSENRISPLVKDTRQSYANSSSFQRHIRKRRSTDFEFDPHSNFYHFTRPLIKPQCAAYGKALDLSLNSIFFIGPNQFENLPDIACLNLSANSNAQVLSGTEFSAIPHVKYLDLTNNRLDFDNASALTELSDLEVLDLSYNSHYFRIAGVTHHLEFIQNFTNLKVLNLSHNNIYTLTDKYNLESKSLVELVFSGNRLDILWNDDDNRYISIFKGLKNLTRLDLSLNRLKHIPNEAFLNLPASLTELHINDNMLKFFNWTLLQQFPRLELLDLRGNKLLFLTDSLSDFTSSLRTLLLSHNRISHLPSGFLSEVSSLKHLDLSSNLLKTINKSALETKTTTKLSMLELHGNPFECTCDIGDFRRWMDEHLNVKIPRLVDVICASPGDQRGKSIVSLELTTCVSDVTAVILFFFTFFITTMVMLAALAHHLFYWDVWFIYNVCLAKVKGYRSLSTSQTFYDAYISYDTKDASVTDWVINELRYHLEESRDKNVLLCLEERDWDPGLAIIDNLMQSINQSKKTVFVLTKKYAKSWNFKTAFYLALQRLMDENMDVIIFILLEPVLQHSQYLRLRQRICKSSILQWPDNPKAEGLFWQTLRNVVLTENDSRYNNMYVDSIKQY
Experimental: The following tests were carried out in order to determine the activity of the compounds of formula (I) in HEK293-Blue-hTLR-7/8/9 cells assay.
HEK293-Blue-hTLR-8 Cells Assay:
A stable HEK293-Blue-hTLR-8 cell line was purchased from InvivoGen (Cat. #: hkb-htlr8, San Diego, Calif., USA). These cells were originally designed for studying the stimulation of human TLR8 by monitoring the activation of NF-κB. A SEAP (secreted embryonic alkaline phosphatase) reporter gene was placed under the control of the IFN-β minimal promoter fused to five NF-κB and AP-1-binding sites. The SEAP was induced by activating NF-κB and AP-1 via stimulating HEK-Blue hTLR8 cells with TLR8 ligands. Therefore the reporter expression was declined by TLR8 antagonist under the stimulation of a ligand, such as R848, for incubation of 20 hrs. The cell culture supernatant SEAP reporter activity was determined using QUANTI-Blue™ kit (Cat. #: rep-qb1, Invivogen, San Diego, Ca, USA) at a wavelength of 640 nm, a detection medium that turns purple or blue in the presence of alkaline phosphatase.
HEK293-Blue-hTLR8 cells were incubated at a density of 250,000˜450,000 cells/mL in a volume of 170 μL in a 96-well plate in Dulbecco's Modified Eagle's medium (DMEM) containing 4.5 g/L glucose, 50 U/mL penicillin, […], […], 2 mM L-glutamine, 10% (v/v) heat-inactivated fetal bovine serum with addition of 20 μL test compound in a serial dilution in the presence of final DMSO at 1% and 10 μL of 60 uM R848 in above DMEM, perform incubation under 37° C. in a CO2 incubator for 20 hrs. Then 20 μL of the supernatant from each well was incubated with 180 μL Quanti-blue substrate solution at 37° C. for 2 hrs and the absorbance was read at 620-655 nm using a spectrophotometer. The signalling pathway that TLR8 activation leads to downstream NF-κB activation has been widely accepted, and therefore similar reporter assay was modified for evaluating TLR8 antagonist.

Compared with `CC[C@@H]1CN(c2ccc(C#N)c3ncccc23)C[C@H]1CN1CCC2(CCNCC2)CC1` (relative stereo) [Example 15, 5-[Trans-3-(3,9-diazaspiro[5.5]undecan-3-ylmethyl)-4-ethyl-pyrrolidin-1-yl]quinoline-8-carbonitrile], `CC(C)[C@@H]1CN(c2ccc(C#N)c3ncccc23)C[C@H]1CN1CCC2(CCNCC2)CC1` (relative stereo) [Example 36, 5-[Trans-3-(3,9-diazaspiro[5.5]undecan-3-ylmethyl)-4-isopropyl-pyrrolidin-1-yl]quinoline-8-carbonitrile] is 27-fold higher in IC50: 190 nM for the first, 5170 nM for the second.

Compared with `FC(F)(F)c1ccc(N2C[C@@H](CN3CCC4(CCNC4)C3)[C@H](C(F)(F)F)C2)c2nccnc12` (relative stereo) [Example 19, 5-[Trans-3-(2,7-diazaspiro[4.4]nonan-2-ylmethyl)-4-(trifluoromethyl)pyrrolidin-1-yl]-8-(trifluoromethyl)quinoxaline], `N#Cc1ccc(N2C[C@H](CN3CCC4(CCNC4)C3)[C@@H](C(F)(F)F)C2)c2nccnc12` (stereo partly drawn) [Example 5, 8-[(3S,4R)-3-(2,7-diazaspiro[4.4]nonan-2-ylmethyl)-4-(trifluoromethyl)pyrrolidin-1-yl]quinoxaline-5-carbonitrile] is 7.2-fold lower in IC50: 253 nM for the first, 35 nM for the second.

First: C[C@@H]1CN(c2ccc(C(F)(F)F)c3nccnc23)C[C@H]1CN1CCC2(CCNCC2)CC1 (relative stereo) [Example 21, 3-[[Trans-4-methyl-1-[8-(trifluoromethyl)quinoxalin-5-yl]pyrrolidin-3-yl]methyl]-3,9-diazaspiro[5.5]undecane]
Second: N#Cc1ccc(N2C[C@H](CN3CCC4(CCNCC4)CC3)[C@@H](C(F)(F)F)C2)c2nccnc12 [Example 1, 8-[(3S,4R)-3-(3,9-diazaspiro[5.5]undecan-3-ylmethyl)-4-(trifluoromethyl)pyrrolidin-1-yl]quinoxaline-5-carbonitrile]
The IC50 of the first is 18-fold higher: 351 nM for the first, 20 nM for the second.

Going from `N#Cc1ccc(N2C[C@@H](CN3CCC4(CCNCC4)CC3)[C@H](C(F)F)C2)c2cccnc12` (relative stereo) [Example 27, 5-[Trans-3-(3,9-diazaspiro[5.5]undecan-3-ylmethyl)-4-(difluoromethyl)pyrrolidin-1-yl]quinoline-8-carbonitrile] to `N#Cc1ccc(N2C[C@H](CN3CCC4(CCNCC4)CC3)[C@@H](C(F)(F)F)C2)c2cccnc12` [Example 2, 5-[(3S,4R)-3-(3,9-diazaspiro[5.5]undecan-3-ylmethyl)-4-(trifluoromethyl)pyrrolidin-1-yl]quinoline-8-carbonitrile], the IC50 falls from 454 nM to 57 nM (8-fold).

Going from `N#Cc1ccc(N2C[C@@H](CN3CCC4(CCNCC4)CC3)[C@H](C3CC3)C2)c2cccnc12` (relative stereo) [Example 28, 5-[Trans-3-cyclopropyl-4-(3,9-diazaspiro[5.5]undecan-3-ylmethyl)pyrrolidin-1-yl]quinoline-8-carbonitrile] to `CC[C@@H]1CN(c2ccc(C#N)c3ncccc23)C[C@H]1CN1CCC2(CCNC2)C1` (relative stereo) [Example 29, 5-[Trans-3-(2,7-diazaspiro[4.4]nonan-2-ylmethyl)-4-ethyl-pyrrolidin-1-yl]quinoline-8-carbonitrile], the IC50 falls from 948 nM to 197 nM (4.8-fold). The second is the more potent here.

Going from `C[C@@H]1CN(c2ccc(C(F)(F)F)c3nccnc23)C[C@H]1CN1CCC(N2CCCCC2)CC1` (relative stereo) [Example 33, 5-[Trans-3-methyl-4-[[4-(1-piperidyl)-1-piperidyl]methyl]pyrrolidin-1-yl]-8-(trifluoromethyl)quinoxaline] to `N#Cc1ccc(N2C[C@H](CN3CCC(N4CCCCC4)CC3)[C@@H](C(F)(F)F)C2)c2cccnc12` [Example 10, 5-[(3S,4R)-3-[[4-(1-piperidyl)-1-piperidyl]methyl]-4-(trifluoromethyl)pyrrolidin-1-yl]quinoline-8-carbonitrile], the IC50 falls from 245 nM to 52 nM (4.7-fold).

`N#Cc1ccc(N2C[C@@H](CN3CCC4(CCNC4)C3)[C@H](C(F)F)C2)c2cccnc12` (relative stereo) [Example 34, 5-[Trans-3-(2,7-diazaspiro[4.4]nonan-2-ylmethyl)-4-(difluoromethyl)pyrrolidin-1-yl]quinoline-8-carbonitrile] and `CC(C)[C@@H]1CN(c2ccc(C#N)c3ncccc23)C[C@H]1CN1CCC2(CCNC2)C1` (relative stereo) [Example 44, 5-[Trans-3-(2,7-diazaspiro[4.4]nonan-2-ylmethyl)-4-isopropyl-pyrrolidin-1-yl]quinoline-8-carbonitrile] are within 1.5-fold of each other in IC50: 373 nM for the first, 533 nM for the second.

`N#Cc1ccc(N2CC(CN3CCC(N)CC3)C3(CC3)C2)c2nccnc12` (single isomer, unassigned) [Example 68A, 8-[7-[(4-Amino-1-piperidyl)methyl]-5-azaspiro[2.4]heptan-5-yl]quinoxaline-5-carbonitrile] and `CC1(N)CCN(CC2CN(c3ccc(C#N)c4nccnc34)CC23CC3)CC1` (centres unmarked) [Example 7, 8-[7-[(4-Amino-4-methyl-1-piperidyl)methyl]-5-azaspiro[2.4]heptan-5-yl]quinoxaline-5-carbonitrile] are within 1.5-fold of each other in IC50: 60 nM for the first, 43 nM for the second.

`N#Cc1ccc(N2C[C@H](CN3CCC4(CCCNC4)C3)[C@@H](C(F)(F)F)C2)c2cccnc12` (stereo partly drawn) [Example 6, 5-[(3S,7R)-3-(2,9-diazaspiro[4.5]decan-2-ylmethyl)-4-(trifluoromethyl)pyrrolidin-1-yl]quinoline-8-carbonitrile] and `N#Cc1ccc(N2C[C@H](CN3CCC4(CCNC4)C3)[C@@H](C(F)(F)F)C2)c2cccnc12` (stereo partly drawn) [Example 9, 5-[(3S,4R)-3-(2,7-diazaspiro[4.4]nonan-2-ylmethyl)-4-(trifluoromethyl)pyrrolidin-1-yl]quinoline-8-carbonitrile] are within 1.5-fold of each other in IC50: 39 nM for the first, 47 nM for the second.

First: N#Cc1ccc(N2C[C@H](CN3CC4(CCCNC4)C3)[C@@H](C(F)(F)F)C2)c2cccnc12 [Example 8, 5-[(3S,7R)-3-(2,8-diazaspiro[3.5]nonan-2-ylmethyl)-4-(trifluoromethyl)pyrrolidin-1-yl]quinoline-8-carbonitrile]
Second: N#Cc1ccc(N2C[C@H](CN3CCC4(CCNC4)CC3)[C@@H](C(F)(F)F)C2)c2nccnc12 [Example 14, 8-[(3S,4R)-3-(2,8-Diazaspiro[4.5]decan-8-ylmethyl)-4-(trifluoromethyl)pyrrolidin-1-yl]quinoxaline-5-carbonitrile]
The IC50 of the first is 2.9-fold higher: 55 nM for the first, 19 nM for the second. The second is the more potent here.

First: N#Cc1ccc(N2CC(CN3CCC(N4CCCCC4)CC3)C3(CC3)C2)c2nccnc12 (centres unmarked) [Example 11, 8-[7-[[4-(1-Piperidyl)-1-piperidyl]methyl]-5-azaspiro[2.4]heptan-5-yl]quinoxaline-5-carbonitrile]
Second: N#Cc1ccc(N2CC(CN3CCC4(CCCNC4)CC3)C3(CC3)C2)c2nccnc12 (centres unmarked) [Example 13, 8-[7-(2,9-Diazaspiro[5.5]undecan-9-ylmethyl)-5-azaspiro[2.4]heptan-5-yl]quinoxaline-5-carbonitrile]
The IC50 of the first is 2.1-fold lower: 24 nM for the first, 50 nM for the second.

In the case of `CC1(N)CCN(C[C@H]2CN(c3ccc(C#N)c4nccnc34)C[C@@H]2C(F)(F)F)CC1` [Example 12, 8-[(3S,4R)-3-[(4-amino-4-methyl-1-piperidyl)methyl]-4-(trifluoromethyl)pyrrolidin-1-yl]quinoxaline-5-carbonitrile], the IC50 is reported as 31 nM.
